In patent publication US8716247B2, “Peptides effective in the treatment of tumors and other conditions requiring the removal or destruction of cells” (Nymox Corporation, priority 2006, dated 2014):
Where no end group is shown, it is not given here.

Tested on: prostate
Assay: Intraprostatic infusion of S05A Peptides in rats: histological changes of cell death and prostate volume
Type: in vivo, Male Sprague-Dawley rats
Set-up: key to Histological Changes of Cell Death at 24 Hours / Histological Changes of Cell Death at 72 Hours: −: Absent; +: Present, Minimal; ++: Present, Moderate; +++: Present, Moderate and Diffuse; ++++: Present, Diffuse and Extensive
Conditions: for histological findings in prostate of treated rats: rat prostate after intraprostatic infusion, 1.0 mg/kg; for Calculated Mean Volume 24 Hours / Calculated Mean Volume 72 Hours / Calculated Mean Volume 7 Days: rat prostate volume from mean cross-sectional diameters, V=4/3π(D/2)^3; for Calculated Mean Volume 24 Hours / Calculated Mean Volume 72 Hours / Calculated Mean Volume 7 Days / Calculated Mean Volume Overall: 1.0 mg/kg intraprostatic; for Calculated Mean Volume Overall: rat prostate volume, overall across 24 hours, 72 hours and 7 days; for Histological Changes of Cell Death at 24 Hours / Histological Changes of Cell Death at 72 Hours: rat prostate, intraprostatic infusion 300 μl of 1 mg/mL in PBS pH 7.4 (1.0 mg/kg), H & E sections
Protocol: The purpose of this example was to determine the effect of S05A Peptides on tissue at sites of injection.
Male Sprague-Dawley rats (300 gram weight range) were anesthetized with ether and given one of the above S05A Peptides by intraprostatic infusion, a control injection of normal saline or no injection after open surgical visualization of the prostate. The injections consisted of 300 μl of the S05A Peptide 1 mg/mL in PBS pH 7.4. (1.0 mg/kg) (n=36). Rats were painlessly sacrificed after 24 hours (n=12), 72 hours (n=12) and 7 days (n=12). Prostate glands were dissected, fixed in 10% buffered formalin for 24 hours, embedded in paraffin, sectioned, and stained with H & E. For each animal the entire prostate gland was embedded and sectioned. All stained sections were examined histologically and measured. For each prostate at least […] histological sections were examined, and for each histological section two cross-sectional diameters (D) at 90° from each other were measured (total of ≧8 measurements per prostate). The mean of the cross-sectional diameters (D) for each group was used to estimate volume according to V=4/3π(D/2)^3 and the mean volume calculated for each group. Histological changes were assessed on the following scale:
+++ Present, Moderate and Diffuse
++++ Present, Diffuse and Extensive

| Substance | histological findings in prostate of treated rats | Calculated Mean Volume 24 Hours | Calculated Mean Volume 72 Hours | Calculated Mean Volume 7 Days | Calculated Mean Volume Overall | Histological Changes of Cell Death at 24 Hours | Histological Changes of Cell Death at 72 Hours |
| --- | --- | --- | --- | --- | --- | --- | --- |
| IDQQVLSRI [S05A-2] | extensive cell death, necrosis, loss of glandular epithelium and atrophy | 180 mm^3 | 249 mm^3 | 165 mm^3 | 198 mm^3 | ++++ | ++++ |
| IDQQVLSRIKLEI [S05A-7] | extensive cell death, necrosis, loss of glandular epithelium and atrophy | 180 mm^3 | 165 mm^3 | 357 mm^3 | 234 mm^3 | ++++ | ++++ |
| KLEIKRCL [S05A-3] |  | 249 mm^3 | 435 mm^3 | 463 mm^3 | 382 mm^3 | + | + |
| RIKLEIK [S05A-5] |  | 249 mm^3 | 408 mm^3 | 392 mm^3 | 350 mm^3 | + | + |
| VLSRIK [S05A-4] |  | 357 mm^3 | 408 mm^3 | 333 mm^3 | 366 mm^3 | + | + |
| VLSRIKLEIKRCL [S05A-6] |  | 310 mm^3 | 493 mm^3 | 408 mm^3 | 404 mm^3 | + | + |
